Earlier results as cited in patent EP3124016B1, “ANTIPSORIATIC EMULSION COMPOSITION COMPRISING CEFAZOLIN” (Warszawski Uniwersytet Medyczny, priority 2015, dated 2017).
Counter-ions that a name gives are not always drawn.

Settings: 1% aqueous solution

time for which eye drops were stable (stored at 4°C): 42 days
time for which stability lasted (eye drops, storage in room temperature): only for a few days
SMILES: Cc1nnc(SCC2=C(C(=O)O)N3C(=O)[C@@H](NC(=O)Cn4cnnn4)[C@H]3SC2)s1 [cefazolin sodium salt]
